Structures are written as SMILES.

From patent publication US7005537B2, “Production of esters” (ExxonMobil Chemical Patents Inc., priority 1999, dated 2006) come the findings set out here.

Common to all, as to assay type: physicochemical
One series is described as follows: Fluid solvent properties.
Series [1] is described as follows: Stability of solvent to acid catalyst (pTSA) in acrylic solvent system, GC. As to conditions: for Wt. % of Solvent At One Week Decomposition Period / Wt. % of Solvent At Three Week Decomposition Period: 0.5 wt % pTSA, 50° C., nitrogen, 100 at start of test. As for the experimental part:
Acrylic solvent systems were prepared to test the stability of methyl pivalate to acid catalysts, which are commonly present in coating compositions. The formulations contained 29.9 wt % MP, 28.7 wt % pentyl acetate, 20.2 wt % n-butyl acetate, 16.1 wt % n-butyl alcohol, 3.6 wt % methyl ethyl ketone, 1.5 wt % isopropyl alcohol. 2 wt % toluene as an internal standard. The latter materials were purchased from Aldrich Chemical Co.
Para toluene sulfonic acid (pTSA) was added to the above formulation (again, pTSA was purchased from Aldrich Chemical Co.), in the amount of 0.5 wt %. The solutions were sealed and placed in an oven at 50° C. under a nitrogen atmosphere. Samples were withdrawn at intervals for testing. The content of methyl pivalate was monitored over time by gas chromatographic analysis using an HP 5890 gas chromatograph. In a parallel experiment an equal amount of tert butyl acetate was used instead of methyl pivalate. The results are shown below in Table 7 (all percentages are by weight).

The nature of the next series: Reid Vapor Pressure. The text has this:
The invention also includes producing a gasoline fuel containing an ester for use in internal combustion engines, wherein the ester has a Reid Vapor Pressure less than about 4 pounds per square inch. An important factor in determining a compound's ozone formation potential includes the compound's vapor pressure. Compounds with relatively high vapor pressures are more likely to volatilize into the atmosphere from open sources. Potential open sources include, for example, sources from production, distribution, storage and/or combustion of fuels containing oxygenates. The C7 to C14 esters according to the invention are expected to have low vapor pressures in comparison to MTBE and some other oxygenates. Preferably, the esters have a RVP less than about 3.5 psi. More preferably, less than about 3.0 or 2.0 psi. For example, Methyl Pivalate has a Reid Vapor Pressure of about 1.6 psi.

From the text for Fluid solvent properties: One of ordinary skill in the art can readily determine the flash point of a fluid or blend (e.g., ASTM D92-78).

Turning to `COC(=O)C(C)(C)C` [Methyl Pivalate, methyl pivalate (methyl 1,1,1-trimethyl acetate)], in the series “Fluid solvent properties”, the “Flash Point” value turned out to be 7 °C and the “Surface Tension” value is given as 23.8. Also, in series [1], the “stability to acid catalysts (in words)” value is on record as “more stable to acid catalysts than is t-butyl acetate”, the “Wt. % of Solvent At One Week Decomposition Period” value is on record as 88.0 Wt. % and the “Wt. % of Solvent At Three Week Decomposition Period” value stood at 65.1 Wt. %. Further, the “Reid Vapor Pressure” value in the series “Reid Vapor Pressure” is listed as “about 1.6 psi”.
As for `CC(=O)OC(C)(C)C` [t-butyl acetate, tertiary butyl acetate], in series [1], the “stability to acid catalysts (in words)” value is “not inert with respect to acids”, the “Wt. % of Solvent At One Week Decomposition Period” value is 65.9 Wt. % and the “Wt. % of Solvent At Three Week Decomposition Period” value stood at 24.1 Wt. %.
As to `CC(C)=O` [Acetone], in “Fluid solvent properties”, the “Hansen Solubility Parameter H-Bonding” value is listed as 3.4, the “Hansen Solubility Parameter Nonpolar” value was found to be 7.6, the “Hansen Solubility Parameter Polar” value is recorded as 5.1 and the “Hansen Solubility Parameter Total” value is recorded as 9.2. In addition, the “Surface Tension” value in the series “Fluid solvent properties” is given as 22.3.
